In patent US11180483B2, “Substituted reverse pyrimidine Bmi-1 inhibitors” (PTC Therapeutics, Inc., priority 2012, dated 2021):
pEC50: −log10 of the molar value.

Test system: Bmi-1
Assay: Sandwich ELISA Assay (Bmi-1 ELISA) in HT-1080 cells
Assay type: cell-based
Method in brief: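 Bmi-1 in lysates was measured by a three-antibody ELISA with TMB, OD450 minus OD570 reference, interpolated on a GST-tagged recombinant Bmi-1 standard curve, 0-8000 pg/mL. Lysates came from HT-1080 cells treated 40-48 h with compound, final DMSO 0.5%.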

Question: With `Cc1nn2ccccc2c1-c1nc(N)c(F)c(Nc2ccc(C(F)(F)F)cc2)n1` [Cpd 177, 5-fluoro-2-(2-methylpyrazolo[1,5-a]pyridin-3-yl)-N-[4-(trifluoromethyl)phenyl]pyrimidine-4,6-diamine] as the molecule, how does the pEC50 read?
Answer: The pEC50 was 5.52 to 7.00.

Question: With `Cc1nc2ccccc2n1-c1nccc(Nc2ccc(C(F)(F)F)cc2)n1` [Cpd 41, 2-(2-methyl-1H-benzimidazol-1-yl)-N-[4-(trifluoromethyl)phenyl]pyrimidin-4-amine] as the molecule, how does the pEC50 read?
Answer: The pEC50 was 5.52 to 7.00.

Question: `Cc1nc2cc(F)c(F)cc2n1-c1nc(N)c(F)c(Nc2ccc(Cl)cc2)n1` [Cpd 215, N-(4-chlorophenyl)-2-(5,6-difluoro-2-methyl-1H-benzimidazol-1-yl)-5-fluoropyrimidine-4,6-diamine] was tested. Which pEC50 did it give?
Answer: The pEC50 was 5.52 to 7.00.

Question: `Nc1nc(-n2c(C3CC3)nc3ccccc32)nc(Nc2ccc(OC(F)F)c(F)c2)c1F` [Cpd 122, 2-(2-cyclopropyl-1H-benzimidazol-1-yl)-N-[4-(difluoromethoxy)-3-fluorophenyl]-5-fluoropyrimidine-4,6-diamine] was tested. Which pEC50 did it give?
Answer: The pEC50 was 7.00 to 8.00.

Question: `COc1ccc(Nc2ccnc(-c3c(C(F)(F)F)nn4ccccc34)n2)cc1` [Cpd 60, N-(4-methoxyphenyl)-2-[2-(trifluoromethyl)pyrazolo[1,5-a]pyridin-3-yl]pyrimidin-4-amine] was tested. Which pEC50 did it give?
Answer: Its pEC50 is 7.00 to 8.00.

Question: `COc1ccc2nc(C)n(-c3nc(N)c(F)c(Nc4ccc(C)cc4)n3)c2c1` [Cpd 248, 5-fluoro-2-(6-methoxy-2-methyl-1H-benzimidazol-1-yl)-N-(4-methylphenyl)pyrimidine-4,6-diamine] was tested. Which pEC50 did it give?
Answer: Its pEC50 is 7.00 to 8.00.

Question: With `Cc1nc2ccc(F)cc2n1-c1nc(N)c(F)c(Nc2cccc(Cl)c2)n1` [Cpd 190, N-(3-chlorophenyl)-5-fluoro-2-(6-fluoro-2-methyl-1H-benzimidazol-1-yl)pyrimidine-4,6-diamine] as the molecule, how does the pEC50 read?
Answer: The pEC50 was 5.52 to 7.00.

Question: How did the pEC50 turn out when `Cc1nc2ccccc2n1-c1nc(N)c(F)c(Nc2ccc(Cl)c(F)c2)n1` [Cpd 261, N-(4-chloro-3-fluorophenyl)-5-fluoro-2-(2-methyl-1H-benzimidazol-1-yl)pyrimidine-4,6-diamine] was run?
Answer: Its pEC50 is 7.00 to 8.00.

Question: How did the pEC50 turn out when `COc1ccc(Nc2nc(-n3c(C)nc4ccccc43)nc(N)c2F)cc1` [Cpd 200, 5-fluoro-N-(4-methoxyphenyl)-2-(2-methyl-1H-benzimidazol-1-yl)pyrimidine-4,6-diamine] was run?
Answer: The pEC50 was 8.00 to 9.00.

Question: `Cc1nc2ccccc2n1-c1nc(N)cc(Nc2ccc([N+](=O)[O-])cc2)n1` [Cpd 211, 2-(2-methyl-1H-benzimidazol-1-yl)-N-(4-nitrophenyl)pyrimidine-4,6-diamine] was tested. Which pEC50 did it give?
Answer: The pEC50 was 5.52 to 7.00.

Question: `CCc1nc2ccccc2n1-c1nc(N)c(F)c(Nc2ccc(OC(F)F)c(F)c2)n1` [Cpd 124, N-[4-(difluoromethoxy)-3-fluorophenyl]-2-(2-ethyl-1H-benzimidazol-1-yl)-5-fluoropyrimidine-4,6-diamine] was tested. Which pEC50 did it give?
Answer: Its pEC50 is 7.00 to 8.00.

Question: `COc1ccc(Nc2nc(-n3c(C4CC4)nc4ccccc43)nc(N)c2F)cc1` [Cpd 277, 2-(2-cyclopropyl-1H-benzimidazol-1-yl)-5-fluoro-N-(4-methoxyphenyl)pyrimidine-4,6-diamine] was tested. Which pEC50 did it give?
Answer: Its pEC50 is at least 9.00.

Question: With `CCc1nc2ccc(F)cc2n1-c1nc(N)c(F)c(Nc2ccc(C(F)(F)F)cc2)n1` [Cpd 164, 2-(2-ethyl-6-fluoro-1H-benzimidazol-1-yl)-5-fluoro-N-[4-(trifluoromethyl)phenyl]pyrimidine-4,6-diamine] as the molecule, how does the pEC50 read?
Answer: Its pEC50 is 7.00 to 8.00.

Question: `Cc1nc2ccccn2c1-c1nccc(Nc2ccc(Cl)cc2)n1` [Cpd 5, N-(4-chlorophenyl)-2-(2-methylimidazo[1,2-a]pyridin-3-yl)pyrimidin-4-amine] was tested. Which pEC50 did it give?
Answer: Its pEC50 is 5.52 to 7.00.

Question: With `COc1ccc(Nc2nc(-n3c(C)nc4c(F)cc(F)cc43)nc(N)c2F)cc1` [Cpd 242, 2-(4,6-difluoro-2-methyl-1H-benzimidazol-1-yl)-5-fluoro-N-(4-methoxyphenyl)pyrimidine-4,6-diamine] as the molecule, how does the pEC50 read?
Answer: Its pEC50 is 8.00 to 9.00.

Question: How did the pEC50 turn out when `Cc1nc2cc(F)c(F)cc2n1-c1nc(N)cc(Nc2ccc(OC(F)F)c(F)c2)n1` [Cpd 101, N-[4-(difluoromethoxy)-3-fluorophenyl]-2-(5,6-difluoro-2-methyl-1H-benzimidazol-1-yl)pyrimidine-4,6-diamine] was run?
Answer: Its pEC50 is 7.00 to 8.00.

Question: How did the pEC50 turn out when `Cc1nc2cc(F)ccc2n1-c1nc(N)c(F)c(Nc2ccc(OC(F)F)c(F)c2)n1` [Cpd 112, N-[4-(difluoromethoxy)-3-fluorophenyl]-5-fluoro-2-(5-fluoro-2-methyl-1H-benzimidazol-1-yl)pyrimidine-4,6-diamine] was run?
Answer: The pEC50 was 7.00 to 8.00.

Question: How did the pEC50 turn out when `CN(C)c1ccc(Nc2ccnc(-c3c(C(F)(F)F)nc4ccccn34)n2)cn1` [Cpd 31, N^2,N^2-dimethyl-N^5-{2-[2-(trifluoromethyl)imidazo[1,2-a]pyridin-3-yl]pyrimidin-4-yl]pyridine-2,5-diamine] was run?
Answer: The pEC50 was 7.00 to 8.00.

Question: `Cc1nc2ccccn2c1-c1nccc(Nc2ccccc2)n1` [Cpd 6, 2-(2-methylimidazo[1,2-a]pyridin-3-yl)-N-phenylpyrimidin-4-amine] was tested. Which pEC50 did it give?
Answer: The pEC50 was 7.00 to 8.00.

Question: With `CCc1nc2ccccc2n1-c1nc(N)c(F)c(Nc2ccc(OC(F)(F)F)cc2)n1` [Cpd 272, 2-(2-ethyl-1H-benzimidazol-1-yl)-5-fluoro-N-[4-(trifluoromethoxy)phenyl]pyrimidine-4,6-diamine] as the molecule, how does the pEC50 read?
Answer: Its pEC50 is 7.00 to 8.00.

Question: How did the pEC50 turn out when `Cc1nc2ccccn2c1-c1nc(N)c(F)c(Nc2ccc(OC(F)F)c(F)c2)n1` [Cpd 171, N-[4-(difluoromethoxy)-3-fluorophenyl]-5-fluoro-2-(2-methylimidazo[1,2-a]pyridin-3-yl)pyrimidine-4,6-diamine] was run?
Answer: Its pEC50 is 5.52 to 7.00.

Question: `Cc1nc2cc(C#N)ccc2n1-c1nc(N)c(F)c(Nc2ccc(C(F)(F)F)cc2)n1` [Cpd 229, 1-(4-amino-5-fluoro-6-{[4-(trifluoromethyl)phenyl]amino}pyrimidin-2-yl)-2-methyl-1H-benzimidazole-5-carbonitrile] was tested. Which pEC50 did it give?
Answer: The pEC50 was 5.52 to 7.00.

Question: `Nc1nc(-n2c(C3CC3)nc3c(F)cccc32)nc(Nc2ccc(C(F)(F)F)cc2)c1F` [Cpd 140, 2-(2-cyclopropyl-4-fluoro-1H-benzimidazol-1-yl)-5-fluoro-N-[4-(trifluoromethyl]phenyl]pyrimidine-4,6-diamine] was tested. Which pEC50 did it give?
Answer: Its pEC50 is 7.00 to 8.00.

Question: How did the pEC50 turn out when `Cc1ccc(Nc2nc(-n3c(C)nc4c(F)cc(F)cc43)nc(N)c2F)cc1` [Cpd 241, 2-(4,6-difluoro-2-methyl-1H-benzimidazol-1-yl)-5-fluoro-N-(4-methylphenyl)pyrimidine-4,6-diamine] was run?
Answer: The pEC50 was 7.00 to 8.00.

Question: `Cc1nn2ccccc2c1-c1nc(N)cc(Nc2ccc(C(F)(F)F)cc2)n1` [Cpd 154, 2-(2-methylpyrazolo[1,5-a]pyridin-3-yl)-N-[4-(trifluoromethyl]phenyl]pyrimidine-4,6-diamine] was tested. Which pEC50 did it give?
Answer: Its pEC50 is 5.52 to 7.00.

Question: How did the pEC50 turn out when `Cc1nc2cc(F)ccc2n1-c1nc(N)c(F)c(Nc2ccc(Cl)cc2)n1` [Cpd 259, N-(4-chlorophenyl)-5-fluoro-2-(5-fluoro-2-methyl-1H-benzimidazol-1-yl)pyrimidine-4,6-diamine] was run?
Answer: Its pEC50 is 5.52 to 7.00.

Question: `Cc1nc2ncc(F)cc2n1-c1nc(N)cc(Nc2ccc(C(F)(F)F)cc2)n1` [Cpd 94, 2-(6-fluoro-2-methyl-1H-imidazo[4,5-b]pyridin-1-yl)-N-[4-(trifluoromethyl)phenyl]pyrimidine-4,6-diamine] was tested. Which pEC50 did it give?
Answer: The pEC50 was 7.00 to 8.00.

Question: How did the pEC50 turn out when `COc1ccc(Nc2ccnc(-c3c(C(F)(F)F)nc4ccccn34)n2)cc1` [Cpd 12, N-(4-methoxyphenyl)-2-[2-(trifluoromethyl)imidazo[1,2-a]pyridin-3-yl]pyrimidin-4-amine] was run?
Answer: Its pEC50 is 7.00 to 8.00.
